Results published in patent US12630573B2, “High-affinity Cu(I) ligands and methods of use thereof” (GEORGIA TECH RESEARCH CORPORATION, priority 2019, dated 2026).

Columns and labels:
Assay type in all cases: binding
[1] = Molar ratio titration against BCA copper(I) complex; settings: linear decrease in absorbance at 562 nm
Method: In a quartz cuvette with 1 cm path length, BCA (9.0 μL) was diluted from a 50 mM aqueous stock solution (dissolved by addition of KOH) into 3.0 mL of buffer (10 mM PIPES, 0.1 M KCl, pH 7.0, 25° C.). Furthermore, Cu(II)SO4 (5.0 μL) from a 30 mM stock solution) and sodium ascorbate (7.5 μL from a 60 mM stock solution) were added. After equilibration for 10 minutes, a UV-vis spectrum was recorded, and the solution was titrated in 1-10 μL aliquots with a 3 mM stock solution of phenPS in DMF or naphPS in DMSO. For phenPS, the endpoint occurred at 1.04 molar equivalents on the basis of the mass employed for stock solution preparation, consistent with incomplete removal of the solvent of crystallization as observed by ^1H NMR. An independent molar ratio titration against [Cu(I)MCL-2]PF6 confirmed the stock concentration as 2.88 mM rather than 3.0 mM, and the plotted Cu(I)/phenPS ratio is adjusted accordingly.

[2] = Spectrophotometric Cu(I) competition titration against BCS; settings: pH 7.0, 10 mM PIPES, 0.1 M KCl, 25° C.
Method: An aqueous sodium bathocuproine disulfonate (BCS, Acros Organics) stock solution (60 mM) was prepared calibrated by competition titration against MCL-1 as previously described (Bagchi, P., et al., J. Am. Chem. Soc., 135(49) (2013)). BCS (1.50 mM), sodium ascorbate (150 μM) and CuSO4 (30 μM) were sequentially added via aqueous stock solutions to 3 mL of buffer (10 mM PIPES, 0.1 M KCl, pH 7.0) in a 1-cm path length cuvette equipped with magnetic stirring, and a UV-Vis absorption spectrum was recorded from 650-380 nm. PhenPS was added in 5 μM aliquots from a 2.88 mM stock solution in DMF and an absorption spectrum was acquired after a 2 min equilibration period following each aliquot. The titration was conducted in duplicate, and each dataset was analyzed by nonlinear least squares fitting over the spectral range from 650-400 nm using the Specfit software package from Spectrum Software Associates. The stability constant for naphPS was determined similarly except that the ligand was delivered from a 3.0 mM stock solution in DMSO and a 5-minute equilibration period was required to obtain a stable spectrum after each aliquot.
An aqueous sodium bathocuproine disulfonate (BCS, Acros Organics) stock solution (60 mM) was prepared and calibrated by competition titration against MCL-1 as previously described (Bagchi, P., et al., J. Am. Chem. Soc., 135(49) (2013)). […]

[3] = Molar ratio titration with [Cu(I)MCL-2]PF6; settings: 10 mM PIPES, 0.1 M KCl, pH 7; fit 250-400 nm
Method: In a quartz cuvette with 1 cm path-length, a 50 μM aqueous solution of phenPS was prepared by diluting the ligand from a stock solution (3 mM in DMF) into 2.95 mL of aqueous buffer (10 mM PIPES, 0.1 M KCl, pH 7) under rapid stirring. After recording a UV-vis absorption spectrum from 240 to 500 nm, [Cu(I)MCL-2]PF6 (3 mM stock solution in water) was added in 5 μM aliquots up to 95 μM. The absorption spectrum was recorded after a 1 min mixing period following each aliquot. To derive an accurate reference spectrum of Cu(I)-MCL-2 complex, a separate titration was conducted using pure DMF in place of the phenPS stock solution. The exact concentration of the phenPS stock solution was calibrated against [Cu(I)MCL-2]PF6 by plotting the apparent fractional saturation of the ligand, calculated as f=(A−A0)/(Asat−A0) where A corresponds to the absorbance at 290 nm and the subscripts 0 and sat refer to the spectra at 0 and 50 μM Cu(I), versus nominal molar equivalents of Cu(I) for the first 10 data points (0-0.9 molar equivalents). After concentration correction and subtraction of the DMF background absorption, non-linear least-squares fitting of the titration dataset over the wavelength range 250-400 nm was performed using a fixed log β11 of 21.2 for Cu(I)-phenPS to yield a log β12=31.86±0.07 (log K2=10.66±0.07) for Cu(I)2phenPS.

Compound	removal of Cu(I) from BCA complex [1]	dissociation constant Kd of Cu(I) complex [2] [zM]	log β12 for Cu(I)2phenPS [3]
CP(C)(=S)CP(CP(C)(C)=S)c1cccc2cccc(P(CP(C)(C)=S)CP(C)(C)=S)c12 [naphPS, 1,8-Bis(bis(dimethylphosphorothioylmethyl)phosphino)naphthalene]	quantitative removal of Cu(I)	–	–
CP(C)(=S)CP(CP(C)(C)=S)c1ccccc1P(CP(C)(C)=S)CP(C)(C)=S [phenPS, 1,2-Bis(bis(dimethylphosphorothioylmethyl)phosphino)benzene]	quantitative removal of Cu(I)	0.6	31.86±0.07
